Reference: paper PMC12040169 (PLOS Biology, 2025)

Assay: in vitro
Settings: human, hela cells, % viability

| Structure (SMILES) | viability at 28.5 h, 10 µM [%] | viability at 28.5 h, 10 µM (bulk resorufin, single well) [%] |
| --- | --- | --- |
| CN1C2C=C(N(CCc3ccccc3)C(=O)c3ccc(-c4ccccc4)cc3)CC1CC2 (stereo not drawn) [CBK262596C] | 104 | – |
| Cc1ccc(CS(=O)(=O)N(CC(C)C)C2CC2)c(F)c1 [CBK306460] | 82.9 | – |
| COc1cc(/C=N/NC(=O)CCN2CCN(C)CC2)cc2c1OCO2 [CBK261504] | 116 | – |
| COc1ccc(-c2nc(NCc3ccccc3)n(C(=O)c3ccc([N+](=O)[O-])cc3)n2)cc1 [CBK268265] | 92.8 | – |
| Cc1nn(C)cc1S(=O)(=O)N1CCCC(c2cccc(Cc3ccc(Cl)cc3)n2)C1 (stereo not drawn) [CBK286506] | 88.4 | – |
| CCn1c(COc2c(C)cccc2C)nnc1SCC(=O)N1c2ccccc2Sc2ccccc21 [CBK268103] | 96.4 | – |
| COc1cc(/C=C/C(=O)O)cc(S(=O)(=O)N2CCc3ccccc3C2)c1OC [CBK264406] | 96.8 | – |
| Cc1cc(NC(=O)C2CCN(C(=O)CNc3ccccc3)CC2)no1 [CBK304297C] | 85.9 | – |
| COCCn1c(SCC(=O)N2CCCc3ccccc32)nc(O)cc1=O [CBK304191] | 59.5 | – |
| CSCCN1CCC(Oc2nccnc2OCc2cccnc2)CC1 [CBK083173] | 90.3 | – |
| COc1ccccc1CNC(=O)c1ccc2nc(C)c(N(C)C(=O)c3cccs3)n2c1 [CBK146546] | 86.9 | – |
| Cn1nccc1NC(=O)Nc1ccc(CN2CCOC2=O)cc1 [CBK306279] | 88 | – |
| Cc1ccc(S(=O)(=O)Nc2ccc(C(=O)O)cc2)cc1[N+](=O)[O-] [CBK034055] | 94.8 | – |
| O=c1c2ccccc2c(-c2ccc(Cl)cc2)nn1-c1cc(N2CCNCC2)ccc1[N+](=O)[O-] [CBK265763] | 98.7 | – |
| COc1cc(CNc2cccc(-c3ccsc3)n2)cc(OC)c1 [CBK037592] | 97.8 | – |
| NC(=O)c1ccc(-c2nccnc2NCc2ccc3c(c2)OCO3)cc1 [CBK036696] | 91.3 | – |
| CCCc1ccc(S(=O)(=O)N2CCOC(c3cnn(CC)c3)C2)cc1 (stereo not drawn) [CBK306169] | 83.4 | – |
| O=C(CSc1nc2ccccc2c(=O)n1-c1ccc(F)cc1)Nc1ccc(C(=O)O)cc1 [CBK296140] | 96 | – |
| COc1ccc([C@@]23CC[C@@H](NC(=O)Nc4ccc(-c5csnn5)cc4)C[C@@H]2N(C)CC3)cc1OC [CBK051163T] | 95.3 | – |
| Cc1cccc(CN2CCC3(CCc4ccccc4C(=O)N3)C2)n1 (stereo not drawn) [CBK284619] | 106 | – |
| Cc1cc(NS(=O)(=O)c2ccc(NC(=O)c3cc4ccccc4o3)cc2)no1 [CBK267597] | 88 | – |
| O=C(c1ccc(F)cc1)C1CCN(CCc2c[nH]c3ccccc23)CC1 [CBK149125] | 96.3 | – |

| Structure (SMILES) | viability at 28.5 h, 10 µM [%] | viability at 28.5 h, 10 µM (bulk resorufin, single well) [%] |
| --- | --- | --- |
| O=C(c1cc2ccccc2[nH]1)N1CCN(Cc2ccccc2)CC1 [CBK200172] | 118 | – |
| CCCC/C=C/c1ccc(Nc2ccc(N3CCOCC3)cc2)nc1 [CBK036886] | 88.7 | – |
| O=C(c1nccs1)C1CCN(C(=O)Cc2ccc(Cl)cc2)CC1 [CBK284160] | 84.1 | – |
| C=CCN1C(=O)CC2(C1=O)C(=O)N(Cc1nc(-c3ccc(Cl)cc3)no1)c1ccc(OC)cc12 (stereo not drawn) [CBK075692] | 97.1 | – |
| COc1cccc2ccn(S(=O)(=O)c3ccsc3C(=O)O)c12 [CBK003636] | 96.1 | – |
| Cc1cc(COc2nccnc2N2CCN(Cc3ccc(C(C)C)cc3)CC2)no1 [CBK084186] | 94.9 | – |
| O=S(=O)(c1ccc(C(F)(F)F)cc1Cl)N1CCN(Cc2c[nH]nc2-c2cccs2)CC1 [CBK062864] | 108 | – |
| CCn1c(=O)oc2cc(NC(=O)NCCN3CCCCC3CO)ccc21 (stereo not drawn) [CBK306565] | 107 | – |
| O=C(c1ccc(-c2nccnc2N2CCN(CCO)CC2)cc1)N1CCOCC1 [CBK036812] | 92.1 | – |
| Cc1cc(CN(C)Cc2ccc3c(c2)n(C)c(=O)n3C)n[nH]1 [CBK281705] | 101 | – |
| Cc1c(OCCC2CCCCN2C)ccc2c(=O)cc(N3CCOCC3)oc12 (stereo not drawn) [CBK016644] | 91.8 | – |
| O=C(O)COc1ccc(NC(=O)CSCc2ccc(Cl)cc2Cl)cc1 [CBK131700] | 89.2 | – |
| Cc1ccc(S(=O)(=O)CC(=O)N2CCC3(CCN(C(=O)Cc4c[nH]c5ccccc45)C3)C2)cc1 (stereo not drawn) [CBK131443] | 84 | – |
| CS(=O)(=O)N1CCc2cc(-c3csc(NCC(F)(F)F)n3)ccc21 [CBK305650] | 95.4 | – |
| CCN(CC)CCCOC(=O)C(CCSC)c1ccccc1C (stereo not drawn) [CBK023177C] | 91.7 | – |
| COc1ccccc1Nc1nc(N)nc(CSc2ncccn2)n1 [CBK266734] | 104 | – |
| Cc1ccc(OCc2nnc(SCc3cccc(C#N)c3)n2Cc2ccccc2)cc1C [CBK266065] | 90.5 | – |
| Cc1cc(C)n(CCNC(=O)c2ncoc2-c2ccc(F)cc2)n1 [CBK282356] | 83.2 | – |
| Cc1nc(C)c(C(=O)NCC(C)(C)N2CCCCC2)o1 [CBK281866] | 94.2 | – |
| CCc1nc2c(OCC(=O)c3ccc(Cl)cc3Cl)cccn2c1N(C)C(=O)C1CC1 [CBK147712] | 89.7 | – |
| Cc1nnsc1C(=O)N1CCN(c2cc(C(F)(F)F)ccn2)CC1 [CBK008467] | 86.4 | – |
| CCCC(=O)c1ccc(S(=O)(=O)N2CCN(CCCOC3CCCCO3)CC2)cc1 (stereo not drawn) [CBK062858] | 96.6 | – |

| Structure (SMILES) | viability at 28.5 h, 10 µM [%] | viability at 28.5 h, 10 µM (bulk resorufin, single well) [%] |
| --- | --- | --- |
| COCCCn1c(=O)[nH]c2ncc(-c3cc(OC)c(OC)c(OC)c3)nc21 [CBK064937] | 91.8 | – |
| COc1ccc2c(c1)OC1(CCN(CC(O)c3ccc(-c4ccccc4)cc3)CC1)CC2O (stereo not drawn) [CBK286346] | 91.2 | – |
| CCCn1c(-c2ccccc2OC(F)(F)F)n[nH]c1=O [CBK074238] | 110 | – |
| c1ccc(CCNc2nccnc2-c2cccs2)nc1 [CBK036776] | 97.7 | – |
| COc1ccc(Cn2nc(-c3nc(C)no3)c3ccccc32)cc1 [CBK105834] | 90.7 | – |
| COc1ccccc1C(=O)N1CCN(c2nc3c(s2)c(C)nn3C)CC1 [CBK306836] | 86.6 | – |
| COc1cccc(COc2nccnc2-c2ccc(C)cc2C)c1OC [CBK106995] | 93.2 | – |
| CSc1nc2ccc(S(=O)(=O)NCCOc3ccc(Cl)cc3)cc2s1 [CBK268219] | 81.9 | – |
| COc1nc(N(C)C)nc(N2CC(=O)N(c3ccccc3)C2=N)n1 [CBK269079] | 87.6 | – |
| Cc1ccc(C(=O)NCc2cccnc2)c(N2CCOCC2)n1 [CBK076400] | 112 | – |
| COc1ccccc1N1CCN(C(=O)NCc2cnc(C)cn2)CC1 [CBK155367] | 105 | – |
| Cc1ccccc1NC(=O)Cc1nnc(SCC(=O)c2ccccc2)n1C [CBK269719] | 101 | – |
| Cc1ccc(Cl)cc1NC(=O)c1cc(NC(=O)C2C3C=CC(C3)C2C(=O)O)ccc1N1CCCCC1 (stereo not drawn) [CBK268194] | 85.9 | – |
| O=C(Nc1snnc1-c1ccc(Cl)cc1)c1cccc(C(F)(F)F)c1 [CBK153246] | 72.5 | – |
| CCOCCn1c(CN2CCOCC2)nc2c1c(=O)n(C)c(=O)n2C [CBK306062] | 105 | – |
| Cc1ccc(NC(=O)c2ccc3ccccc3n2)c(C)n1 [CBK200293] | 83.2 | – |
| Cc1cnn(CCCNC(=S)Nc2ccc(S(N)(=O)=O)cc2)c1 [CBK266957] | 90.7 | – |
| CCCN(c1nc(C)c(Br)c(OC)n1)S(=O)(=O)c1ccc(C)cc1 [CBK028072] | 105 | – |
| Brc1ccc2[nH]c3c(c2c1)CCNC31CCN(CCOc2ccccc2)C1 (stereo not drawn) [CBK083578] | 75.5 | – |
| O=C(CCn1c(C(F)(F)F)cc2cccnc21)NCc1ccncc1 [CBK284841] | 90.5 | – |
| COc1ccc(O)c(C(=O)c2cnn(C(=O)c3ccc(C)cc3)c2)c1 [CBK297546] | 86.3 | – |
| CC(C)N(CCc1cc2ccccc2o1)C(C)C [CBK011518C] | – | 113 |

| Structure (SMILES) | viability at 28.5 h, 10 µM [%] | viability at 28.5 h, 10 µM (bulk resorufin, single well) [%] |
| --- | --- | --- |
| CCC(NC1CCc2nc(COC)nn2C1)c1ccccc1O (stereo not drawn) [CBK305132] | 92.1 | – |
| O=C(C[C@@H]1O[C@H](CNS(=O)(=O)c2ccccc2)[C@@H](O)[C@H]1O)N1CCCC1 [CBK288909] | 108 | – |
| O=C(NC1CCCC1)c1ccc(-c2cnc3[nH]c(=O)n(CCCN4CCOCC4)c3n2)cc1 [CBK064829] | 102 | – |
| Cc1cc(-c2nccnc2NCc2cccc(Cl)c2)cc(C)c1O [CBK036646] | 87.4 | – |
| Cc1ccccc1CN(CC(=O)NC1CC1)S(=O)(=O)c1ccc(Cl)cc1 [CBK265757] | 98.3 | – |
| O=C(NC1CCCN(CC(F)(F)F)C1=O)c1cnc(-c2ccncc2)s1 (stereo not drawn) [CBK306175] | 82.6 | – |
| COc1ccccc1C(=O)Nc1sc2c(c1C(=O)NCc1ccco1)CCCC2 [CBK265105] | 100 | – |
| Cc1noc(C)c1NC(=O)c1nc2ccccc2[nH]1 [CBK200315] | 81.5 | – |
| CCc1ccc(OCC(=O)Nc2cccnc2)cc1 [CBK264658] | 96.6 | – |
| Oc1ccc(/C=N/c2ccc(O)c(-c3nc4ccccc4s3)c2)cc1O [CBK262473] | 98.9 | – |
| CN(C)c1nc2c(ncn2C2OC(CO)C(O)C2O)c(=O)[nH]1 (stereo not drawn) [CBK201295] | 96.3 | – |
| Cc1nc(SCCC(=O)Nc2ccccc2C#N)nc2cc3c(cc12)CCC3 [CBK268812] | 90.2 | – |
| COCCn1ccnc1C1CCN(C(=O)COc2cccc(F)c2)CC1 [CBK307362] | 91.3 | – |
| O=C(O)c1[nH]c2ccccc2c1NS(=O)(=O)c1cc(F)c(Br)cc1F [CBK049885] | 62.8 | – |
| O=C(/C=C/c1ccc(Br)cc1)N1CCN(Cc2ccc3c(c2)OCO3)CC1 [CBK074434] | 91.5 | – |
| Nc1ncc(-c2cccc(O)c2)nc1N1CCOCC1 [CBK063376] | 100 | – |
| CC1CCC(C(N)=O)CN1C(=O)c1cncc(Br)c1 (stereo not drawn) [CBK305773] | 96.3 | – |
| CN(C)S(=O)(=O)c1c(Cl)cccc1Cl [CBK091643] | 84 | – |
| Cc1ccc(-c2cc(C(=O)N3CCN(C4CCS(=O)(=O)C4)CC3)c3ccccc3n2)cc1 (stereo not drawn) [CBK297153] | 112 | – |
| CC1(C)[C@H](Cc2cc(CO)on2)C[C@@H]1NS(=O)(=O)c1ccccc1 [CBK289234] | 86 | – |
| CC(=O)N1CCCc2cc(C(O)CN3CCCC(C)C3)ccc21 (stereo not drawn) [CBK282142] | 84.1 | – |
